Data as given in patent US20260048066A1, “TREATMENT OF NEURODEGENERATIVE DISORDERS UTILISING METHYLTHIONINIUM (MT)-CONTAINING COMPOUNDS” (WISTA LABORATORIES LTD, priority 2022, published 2026).
Where two headings read alike, the source gives them in different places.

Key:
[1] = LUCIDITY trial: plasma HMT/MT levels; format: in vivo, human; details: MTC 4 mg twice weekly; after 12 months of treatment
[2] = system: participants with severity ranging from mild cognitive impairment (MCI) to moderate AD; assay: LUCIDITY Phase 3 trial: cognitive (ADAS-cog), functional (ADCS-ADL) and brain atrophy outcomes; format: in vivo, human
Description: The LUCIDITY trial (NCT03446001; EudraCT: 2017-003558-17) is a Phase 3, randomized, double-blind, placebo-controlled, outpatient trial to evaluate the safety, efficacy, and tolerability of hydromethylthionine mesylate monotherapy in participants with severity ranging from mild cognitive impairment (MCI) to moderate AD. The initial 12-month blinded period is followed by a 12-month, open-label extension period to provide comparative, delayed-start data. There are 76 study sites located in Canada, France, Italy, Poland, Spain, United Kingdom and United States. The protocol was approved by an institutional review board or independent ethics committee at each site.
Following screening, eligible participants are randomized at baseline in a 4:1:4 ratio to receive hydromethylthionine mesylate 16 mg/day, hydromethylthionine mesylate 8 mg/day, or placebo. Following completion of the 52-week double-blind treatment period, all participants continue open-label treatment with hydromethylthionine mesylate 16 mg/day for a further 52 weeks. Participants who were randomized to start on HMTM are considered early-starters; patients who begin on placebo and switch to HMTM at week 52 are considered delayed starters. Unlike a traditional delayed start design, in which participants remain blinded to treatment throughout the trial, treatment during weeks 52 to 104 is open-label, although participants and the site study staff remain blinded to prior treatment assignment. Randomization was stratified by severity (three levels: MMSE 16-19, 20-25, or 26-27, with a target ratio of approximately 2:3:1), prior use of symptomatic treatments (AChEls and/or memantine-two levels: prior use or none), and region (two levels: Canada/USA or UK/Europe). To achieve this target, enrolment was monitored and controlled at the site level for high recruiting sites and capped as needed at the study level. Patients who dropped out after randomization were not replaced, but participants were encouraged to continue with study visits off treatment until the scheduled completion of the double-blind treatment period (Visit 7). Only participants who continued in the study and receive hydromethylthionine mesylate treatment up to and including the last visit (Visit 10) without the addition of concomitant AChEls and/or memantine were eligible for continued treatment in a subsequent expanded access program.
The active and placebo treatment formulations are tablets that look visually the same. Hydromethylthionine mesylate can cause variable urinary discoloration. Therefore, to maintain blinding, the placebo group receives tablets containing a urinary discolourant (MTC, 4 mg) included among blank tablets containing only excipients on a varying schedule with an average frequency of 2/week.
Dosing frequency of 4 mg MTC tablets was on a varying schedule, such that each patient received a 4 mg tablet among the blanks on average twice per week. All subjects (on all arms) received 4 tablets at two times of day. This allowed for 2×4 mg followed by 2×4 mg to give 16 mg/day dose. 4 tablets were also given daily for placebo (2×placebo then 2×placebo) with 4 mg MTC tablets inserted at a rate of 2 per week i.e. 2 MTC tablets out of 28 per week, with remainder being true placebo.
Participants had to be aged less than 90 years and meet the diagnostic criteria for probable AD or MCI-AD and must not have been taking an AChEl or memantine, for at least 60 days at Baseline. They must have been community-dwelling, have a mini mental state exam (MMSE) score of 16-27, and with functional impairment as evidenced by a Clinical Dementia Dating (CDR) stage of 0.5 to 2 at screening. […] All patients must also have at least one study partner, consenting to their own participation; study partners can be changed so long as they have sufficient contact to complete outcome and safety assessments meaningfully and verify compliance with trial treatment. […]

[3] = LUCIDITY trial: plasma HMT/MT levels; format: in vivo; details: human, oral
Protocol: At Visits 2, 3, 7 and 10, timed morning blood samples are collected for determination of plasma level of the drug. Samples are collected prior to dosing and then at 1, 2, and 4 hours post dose. A single blood sample for apolipoprotein E (ApoE) is obtained from participants who provide informed consent at any time after eligibility determination and prior to Visit 7. Blood may also be analyzed for other biomarkers for possible future research related to determination of potential biomarker predictors or surrogates for treatment response, to be described in a separate protocol.
All patients received 16 mg/day (i.e. 8 mg twice daily) from Visit 7 onwards.
The steady-state plasma concentrations (Visit 4. 1 h post-dose) in each dosing arm was investigated further. Patients were grouped based on plasma concentration.

[4] = system: participants with severity ranging from mild cognitive impairment (MCI) to moderate AD; assay: LUCIDITY trial: safety and tolerability; format: in vivo, human
Protocol: All safety assessments are performed during Screening to assess subject eligibility, by an independent qualified medical assessor not involved in efficacy assessments. For the enrolled participants, safety assessments are undertaken at Baseline and at each clinic visit after 4, 13, 26, 39, and 52 weeks during the double-blind treatment period, as well as after 56 (telephone assessment, or on-site in UK), 78, and 104 weeks in the open-label, delayed-start phase; when needed to follow up on a treatment-emergent adverse event (AE); and upon early termination (Table 1). Patients are followed as needed for the resolution or stabilization of any AE, consistent with the investigator's medical judgement.

[5] = Completed hydromethylthionine mesylate Phase 3 studies: estimated treatment effect; format: in vivo, human
Protocol: Sample size estimations to achieve 90% power (two-sided alpha=0.05) to detect a difference between hydromethylthionine mesylate 16 mg/day and placebo, the primary treatment group comparison in the double-blind treatment period, have been performed for the two co-primary clinical end points, assuming a withdrawal rate of 20% to 25%. The study sample size of approximately 450 is based on the ADCS-ADL23, which has a larger standard deviation (SD) than ADAS-Cog11. Based on an estimated decline in ADCS-ADL23 over 52 weeks in the control arm of 7.7 units with an estimated SD of 8.5 units, the study will have >90% power to detect a reduction in decline of 3.4 units or more. The 3.4-unit effect size is derived from an estimated treatment effect of 5.0±1.6 (mean±standard error) units in the completed hydromethylthionine mesylate studies. Based on an estimated decline of 6.5 units in ADAS-Cog11 over 52 weeks with an estimated SD of 5.9 units, 200 participants per treatment arm provide >90% power to detect a reduction in decline of 2.6 units or more, provided by a conservative value of the estimated treatment effect based on pooled completed Phase 3 studies of −5.2±1.3 (mean±standard error) units in completed hydromethylthionine mesylate studies.

[6] = system: red cells; details: in vivo, administered intravenously; cited from earlier work
[7] = 16 mg/day, whole study population, MCI to moderate disease

CN(C)c1ccc2nc3ccc(N(C)C)cc3[s+]c2c1 [MTC, methylthioninium chloride]
AD patients with plasma levels above 0.10 ng/ml (Cmax) [1]: 89%
treatment effect on ADAS-cog compared to expected decline ([2]; control group (4 mg MTC twice weekly), high plasma HMT group, 12 months): -4.73±2.01
ADAS-cog decline ([2]; control group (4 mg MTC twice weekly), ultra-low plasma HMT cases, 12 months): 3.75±0.79

CN(C)c1ccc2c(c1)Sc1cc(N(C)C)ccc1N2 [HMT, N3,N3,N7,N7-tetramethyl-10H-phenothiazine-3,7-diamine]
concentration at 1 h ([3]; all dosing arms pooled, steady-state plasma, 1 h post-dose, read-out: Mean value HMT conc): 0.2 ng/mL
concentration at 1 h ([3]; all dosing arms pooled, sub-group BLLOQ (values set to zero), 1 h post-dose, read-out: Mean value HMT conc): 0 ng/mL
concentration at 1 h ([3]; all dosing arms pooled, sub-group high, 1 h post-dose, read-out: Mean value HMT conc): 0.41 ng/mL
concentration at 1 h ([3]; all dosing arms pooled, sub-group mid, 1 h post-dose, read-out: Mean value HMT conc): 0.04 ng/mL
concentration at 1 h ([3]; all dosing arms pooled, sub-group ultralow, 1 h post-dose, read-out: Mean value HMT conc): 0.01 ng/mL

CN(C)c1ccc2c(c1)Sc1cc(N(C)C)ccc1N2.CS(=O)(=O)O.CS(=O)(=O)O [LMTM, N,N,N′,N′-tetramethyl-10H-phenothiazine-3,7-diaminium bis(hydromethanesulfonate)]
concentration at 1 h ([3]; 8 mg/day, 8 mg/day LMTM arm, sub-group BLLOQ (set to zero), steady state 1 h post-dose, read-out: Mean HMT conc): 0 ng/mL
concentration at 1 h ([3]; 8 mg/day, 8 mg/day LMTM arm, sub-group high, steady state 1 h post-dose, read-out: Mean HMT conc): 0.26 ng/mL
concentration at 1 h ([3]; 8 mg/day, 8 mg/day LMTM arm, sub-group mid, steady state 1 h post-dose, read-out: Mean HMT conc): 0.05 ng/mL
concentration at 1 h ([3]; 16 mg/day, 16 mg LMTM/day group, week 4, 1h post dose, read-out: overall mean plasma concentration): 0.5 ng/mL
concentration at 1 h ([3]; 16 mg/day, 16 mg/day LMTM arm, sub-group BLLOQ (set to zero), steady state 1 h post-dose, read-out: Mean HMT conc): 0 ng/mL
concentration at 1 h ([3]; 16 mg/day, 16 mg/day LMTM arm, sub-group high, steady state 1 h post-dose, read-out: Mean HMT conc): 0.5 ng/mL
concentration at 1 h ([3]; 16 mg/day, 16 mg/day LMTM arm, sub-group mid, steady state 1 h post-dose, read-out: Mean HMT conc): 0.04 ng/mL
concentration at 1 h ([3]; 16 mg/day, 16 mg/day LMTM arm, sub-group ultralow, steady state 1 h post-dose, read-out: Mean HMT conc): 0.02 ng/mL
treatment-related serious adverse events and amyloid related imaging abnormalities (ARIA) [4]: no treatment-related serious adverse events or evidence of amyloid related imaging abnormalities (ARIA)
estimated treatment effect on ADCS-ADL23 (mean±standard error) ([5]; completed hydromethylthionine mesylate studies): 5.0±1.6 units
estimated treatment effect on ADAS-Cog11 (mean±standard error) ([5]; pooled completed Phase 3 studies): −5.2±1.3 units
disease progression by change in cognitive function (p=0.0008) and brain atrophy (p<0.0001) against matched ADNI subjects ([2]; 16 mg/day): Statistically significant reductions in disease progression
decline in cognitive and functional measures ([2]; 16 mg/day LMTM as monotherapy): zero or minimal decline
decline on ADAS-cog11 over the first 12 months [2, 7]: 1.3 ADAS-cog11 units
decline on ADCS-ADL23 over the first 12 months [2, 7]: −1.0 ADCS-ADL23 units
cognitive improvement over baseline on the ADAS-cog13 scale ([2]; 105 patients with MCI, 16 mg/day, at 6 months (p=0.0002), 12 months (p=0.0391) and 18 months (p=0.0473)): 2 units
cognitive decline in the first 9 months ([2]; 147 patients with mild/moderate AD, 16 mg/day): 2.5 unit
cognitive decline over the following 9 months ([2]; 147 patients with mild/moderate AD, 16 mg/day, months 9 to 18): no further decline
rate of progression of brain atrophy ([2]; MCI participants, HMTM 16 mg/day, versus ADNI MCI subjects (p<0.0001)): significantly less than in ADNI MCI subjects
mean change on the instrumental activities of daily living subscale of ADCS-ADL ([2]; MCI patients, 16 mg/day, at 6, 12 and 18 months): remained above the pre-treatment baseline
reduction in functional decline relative to published meta-analysis of placebo decline data ([2]; mild/moderate AD, 16 mg/day, ADCS-ADL): about 75%
functional decline on the ADCS-ADL scale ([2]; mild/moderate AD, 16 mg/day, at 12 months): −2 units
functional decline on the ADCS-ADL scale ([2]; mild/moderate AD, 16 mg/day, at 18 months): −3 units
treatment effects on cognitive and functional decline versus placebo decline data of anti-amyloid trials ([2]; over 18 months): about three-fold larger
MT uptake into red cells, fold higher compared with MTC [6]: approximately 20 fold
